Measured values from patent US7473790B2 (Pfizer Inc., priority 2003, dated 2009).

Molecular target: T1, HCV polymerase (Hepatitis C virus genotype 1b, UniProt P26663)
T1 construct: 2.5 pmoles (0.15 μg) HCV polymerase protein in a final volume of 75 μL
Assay: HCV polymerase primer/template-directed transcription assay (32P-GTP incorporation, filter binding)
Type: biochemical
Conditions: for IC50: recombinant HCV polymerase, 30 minutes at 30° C., concentration giving 50% inhibition of polymerase-directed transcription, read-out: IC50; for inhibition at 50 µM: @ 50 uM compound, given where IC50 was impractical to calculate, read-out: percent inhibition
How it was run: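 Recombinant genotype 1b polymerase (30 nM) extended biotin-dG12 primer on poly(rC)300 template with 1 μM GTP plus α-32P-GTP, pH 7.2, 10 mM MgCl2, 30 min at 30° C, 1% DMSO final. Products captured on DE filters and counted. IC50 fitted from triplicate cpm, with a tight-binding correction applied below 200 nM.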

T1 sequence (P26663 2420-3010): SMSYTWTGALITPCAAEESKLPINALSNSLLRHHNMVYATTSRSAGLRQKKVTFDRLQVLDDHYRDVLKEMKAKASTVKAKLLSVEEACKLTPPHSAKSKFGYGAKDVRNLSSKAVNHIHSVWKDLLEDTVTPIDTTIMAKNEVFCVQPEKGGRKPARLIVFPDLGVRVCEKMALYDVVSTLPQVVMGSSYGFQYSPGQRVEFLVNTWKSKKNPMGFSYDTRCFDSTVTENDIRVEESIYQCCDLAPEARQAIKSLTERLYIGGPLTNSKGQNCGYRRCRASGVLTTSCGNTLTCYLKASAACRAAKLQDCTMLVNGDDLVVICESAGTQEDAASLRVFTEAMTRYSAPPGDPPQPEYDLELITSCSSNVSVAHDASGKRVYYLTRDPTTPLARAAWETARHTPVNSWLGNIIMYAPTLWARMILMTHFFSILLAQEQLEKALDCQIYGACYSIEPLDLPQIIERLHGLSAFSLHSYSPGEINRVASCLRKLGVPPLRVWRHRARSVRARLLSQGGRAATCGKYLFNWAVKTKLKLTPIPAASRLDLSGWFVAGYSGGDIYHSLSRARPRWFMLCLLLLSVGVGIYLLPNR

Structure (SMILES) | IC50 | inhibition at 50 µM
Cc1noc(C)c1-c1ccc(CCC2(C3CCCC3)CC(=O)CC(=O)O2)cc1 (stereo not shown) [A(18), 6-Cyclopentyl-6-{2-[4-(3,5-dimethyl-isoxazol-4-yl)-phenyl]-ethyl}-dihydro-pyran-2,4-dione] | 3.1 µM | –
CC(=O)n1nc(C)c(CCC2(C3CCCC3)CC(=O)CC(=O)O2)c1C (stereo not shown) [A(19), 6-[2-(1-Acetyl-3,5-dimethyl-1H-pyrazol-4-yl)-ethyl]-6-cyclopentyl-dihydro-pyran-2,4-dione] | – | 37%
CCc1cc(CCC2(C3CCCC3)CC(=O)CC(=O)O2)ccc1O (stereo not shown) [A(22), 6-Cyclopentyl-6-[2-(3-ethyl-4-hydroxy-phenyl)-ethyl]-dihydro-pyran-2,4-dione] | 0.3 µM | –
CCC1(CCc2ccc(OC)cc2)CC(=O)CC(=O)O1 (stereo not shown) [A(23), 6-Ethyl-6-[2-(4-methoxy-phenyl)-ethyl]-dihydro-pyran-2,4-dione] | – | 1%
COc1ccc(CCC2(CC(C)C)CC(=O)CC(=O)O2)cc1 (stereo not shown) [A(24), 6-Isobutyl-6-[2-(4-methoxy-phenyl)-ethyl]-dihydro-pyran-2,4-dione] | – | 29%
CCCC1(CCc2ccc(OC)cc2)CC(=O)CC(=O)O1 (stereo not shown) [A(25), 6-[2-(4-Methoxy-phenyl)-ethyl]-6-propyl-dihydro-pyran-2,4-dione] | 73.9 µM | –
C=CCC1(CCc2ccc(OC)cc2)CC(=O)CC(=O)O1 (stereo not shown) [A(26), 6-Allyl-6-[2-(4-methoxy-phenyl)-ethyl]-dihydro-pyran-2,4-dione] | – | 20%
CC1(c2ccc(CCC3(C4CCCC4)CC(=O)CC(=O)O3)cc2Cl)CC(=O)CC(=O)O1 (stereo not shown) [A(27), 6-[2-(3-Chloro-4-(6-Methyl-dihydro-pyran-2,4-dione)-phenyl)-ethyl]-6-cyclopentyl-dihydro-pyran-2,4-dione] | 0.125 µM | –
CC1(c2cccc(CCC3(C4CCCC4)CC(=O)CC(=O)O3)c2)CC(=O)CC(=O)O1 (stereo not shown) [A(28), 6-Cyclopentyl-6-[2-(3-(6-Methyl-dihydro-pyran-2,4-dione)-phenyl)-ethyl]-dihydro-pyran-2,4-dione] | 3.9 µM | –
CC1(c2ccc(CCC3(C4CCCC4)CC(=O)CC(=O)O3)cc2)CCC(=O)O1 (stereo not shown) [A(29), 6-Cyclopentyl-6-{2-[4-(2-methyl-5-oxo-tetrahydro-furan-2-yl)-phenyl]-ethyl}-dihydro-pyran-2,4-dione] | 1.5 µM | –
CCC1(c2ccc(CCC3(C4CCCC4)CC(=O)CC(=O)O3)cc2Cl)CC(=O)CC(=O)O1 (stereo not shown) [A(30), 6-[2-(3-Chloro-4-(6-Ethyl-dihydro-pyran-2,4-dione)-phenyl)-ethyl]-6-cyclopentyl-dihydro-pyran-2,4-dione] | 0.84 µM | –
O=C1CC(=O)OC(CCc2ccc(C3(C4CC4)CC(=O)CC(=O)O3)cc2)(C2CCCC2)C1 (stereo not shown) [A(31)] | 0.4 µM | –
O=C1CC(=O)OC(CCc2ccc(C(=O)C3CC3)cc2)(C2CCCC2)C1 (stereo not shown) [A(32), 6-Cyclopentyl-6-[2-(4-cyclopropanecarbonyl-phenyl)-ethyl]-dihydro-pyran-2,4-dione] | 5.2 µM | –
COC(=O)C(C)(C)c1ccc(CCC2(C3CCCC3)CC(=O)CC(=O)O2)cc1 (stereo not shown) [A(33), 2-{4-[2-(2-Cyclopentyl-4,6-dioxo-tetrahydro-pyran-2-yl)-ethyl]-phenyl}-2-methyl-propionic acid methyl ester] | 5 µM | –
CC(C)(C)C1(c2ccc(CCC3(C4CCCC4)CC(=O)CC(=O)O3)cc2)OCCO1 (stereo not shown) [A(34), 6-{2-[4-(2-tert-Butyl-[1,3]dioxolan-2-yl)-phenyl]-ethyl}-6-cyclopentyl-dihydro-pyran-2,4-dione] | 10 µM | –
C[C@@H](O)c1ccc(CCC2(C3CCCC3)CC(=O)CC(=O)O2)cc1 (stereo partly shown) [A(35), 6-Cyclopentyl-6-{2-[4-(1-hydroxy-ethyl)-phenyl]-ethyl}-dihydro-pyran-2,4-dione] | 4.1 µM | –
C[C@H](O)c1ccc(CCC2(C3CCCC3)CC(=O)CC(=O)O2)cc1 (stereo partly shown) [A(36), 6-Cyclopentyl-6-{2-[4-(1-hydroxy-ethyl)-phenyl]-ethyl}-dihydro-pyran-2,4-dione] | 8.4 µM | –
CC(C)(C)C(=O)c1ccc(CCC2(C3CCCC3)CC(=O)CC(=O)O2)cc1 (stereo not shown) [A(37), 6-Cyclopentyl-6-{2-[4-(2,2-dimethyl-propionyl)-phenyl]-ethyl}-dihydro-pyran-2,4-dione] | 8.7 µM | –
CC(=O)N[C@H](C)c1ccc(CCC2(C3CCCC3)CC(=O)CC(=O)O2)cc1 (stereo partly shown) [A(38), N-(1-{4-[2-(2-Cyclopentyl-4,6-dioxo-tetrahydro-pyran-2-yl)-ethyl]-phenyl}-ethyl)-acetamide] | 12 µM | –
CCOC(=O)CC(=O)N[C@H](C)c1ccc(CCC2(C3CCCC3)CC(=O)CC(=O)O2)cc1 (stereo partly shown) [A(39), N-(1-{4-[2-(2-Cyclopentyl-4,6-dioxo-tetrahydro-pyran-2-yl)-ethyl]-phenyl}-ethyl)-malonamic acid ethyl ester] | – | 14%

Structure (SMILES) | IC50 | inhibition at 50 µM
N#CC1(c2ccc(CCC3(C4CCCC4)CC(=O)CC(=O)O3)cc2)CC1 (stereo not shown) [A(40), 1-{4-[2-(2-Cyclopentyl-4,6-dioxo-tetrahydro-pyran-2-yl)-ethyl]-phenyl}-cyclopropanecarbonitrile] | 2 µM | –
CNC(=O)N[C@H](C)c1ccc(CCC2(C3CCCC3)CC(=O)CC(=O)O2)cc1 (stereo partly shown) [A(41), 1-(1-{4-[2-(2-Cyclopentyl-4,6-dioxo-tetrahydro-pyran-2-yl)-ethyl]-phenyl}-ethyl)-3-methyl-urea] | 13 µM | –
C[C@@H](NS(C)(=O)=O)c1ccc(CCC2(C3CCCC3)CC(=O)CC(=O)O2)cc1 (stereo partly shown) [A(42), N-(1-{4-[2-(2-Cyclopentyl-4,6-dioxo-tetrahydro-pyran-2-yl)-ethyl]-phenyl}-ethyl)-methanesulfonamide] | 8 µM | –
Cc1cc(C(=O)N[C@H](C)c2ccc(CCC3(C4CCCC4)CC(=O)CC(=O)O3)cc2)no1 (stereo partly shown) [A(43), 5-Methyl-isoxazole-3-carboxylic acid (1-{4-[2-(2-cyclopentyl-4,6-dioxo-tetrahydro-pyran-2-yl)-ethyl]-phenyl}-ethyl)-amide] | 20 µM | –
O=C1CC(=O)OC(CCC2CCCCC2)(C2CCCC2)C1 (stereo not shown) [A(44), 6-(2-Cyclohexyl-ethyl)-6-cyclopentyl-dihydro-pyran-2,4-dione] | 68.3 µM | –
N#Cc1cccc(-c2ccc(CCC3(C4CCCC4)CC(=O)CC(=O)O3)cc2)c1 (stereo not shown) [A(45), 4′-[2-(2-Cyclopentyl-4,6-dioxo-tetrahydro-pyran-2-yl)-ethyl]-biphenyl-3-carbonitrile] | 30 µM | –
N#Cc1ccccc1CCC1(C2CCCC2)CC(=O)CC(=O)O1 (stereo not shown) [A(46), 2-[2-(2-Cyclopentyl-4,6-dioxo-tetrahydro-pyran-2-yl)-ethyl]-benzonitrile] | 73 µM | –
O=C1CC(=O)OC(CCc2ccc3ccccc3c2)(C2CCCC2)C1 (stereo not shown) [A(47), 6-Cyclopentyl-6-(2-naphthalen-2-yl-ethyl)-dihydro-pyran-2,4-dione] | 7 µM | –
O=C1CC(=O)OC(CCc2ccc(OC3CCCCO3)cc2)(C2CCCC2)C1 (stereo not shown) [A(48), 6-Cyclopentyl-6-{2-[4-(tetrahydro-pyran-2-yloxy)-phenyl]-ethyl}-dihydro-pyran-2,4-dione] | 33.2 µM | –
CNC(=O)C(C)(C)c1ccc(CCC2(C3CCCC3)CC(=O)CC(=O)O2)cc1 (stereo not shown) [A(49), 2-{4-[2-(2-Cyclopentyl-4,6-dioxo-tetrahydro-pyran-2-yl)-ethyl]-phenyl}-N-methyl-isobutyramide] | 9 µM | –
O=C1CC(=O)OC(CCc2ccc(-c3nnc(-c4ccccc4)o3)cc2)(C2CCCC2)C1 (stereo not shown) [A(50), 6-Cyclopentyl-6-{2-[4-(5-phenyl-[1,3,4]oxadiazol-2-yl)-phenyl]-ethyl}-dihydro-pyran-2,4-dione] | 5.9 µM | –
CCNC(=O)C(C)(C)c1ccc(CCC2(C3CCCC3)CC(=O)CC(=O)O2)cc1 (stereo not shown) [A(51), 2-{4-[2-(2-Cyclopentyl-4,6-dioxo-tetrahydro-pyran-2-yl)-ethyl]-phenyl}-N-ethyl-isobutyramide] | 3.9 µM | –
COC(=O)CC(=O)CC(=O)C(C)(C)Oc1ccc(CCC2(C3CCCC3)CC(=O)CC(=O)O2)cc1F (stereo not shown) [A(52), 6-{4-[2-(2-Cyclopentyl-4,6-dioxo-tetrahydro-pyran-2-yl)-ethyl]-2-fluoro-phenoxy}-6-methyl-3,5-dioxo-heptanoic acid methyl ester] | 1.5 µM | –
COC(=O)C(C)(C)Oc1ccc(CCC2(C3CCCC3)CC(=O)CC(=O)O2)cc1Cl (stereo not shown) [A(53), 2-{2-Chloro-4-[2-(2-cyclopentyl-4,6-dioxo-tetrahydro-pyran-2-yl)-ethyl]-phenoxy}-2-methyl-propionic acid methyl ester] | 3.3 µM | –
O=C(O)COc1ccc(CCC2(C3CCCC3)CC(=O)CC(=O)O2)cc1Cl (stereo not shown) [A(54)] | 2.9 µM | –
COC(=O)C(C)(C)Oc1ccc(CCC2(C3CCCC3)CC(=O)CC(=O)O2)cc1F (stereo not shown) [A(55), 2-{4-[2-(2-Cyclopentyl-4,6-dioxo-tetrahydro-pyran-2-yl)-ethyl]-2-fluoro-phenoxy}-2-methyl-propionic acid methyl ester] | 11.2 µM | –
Cc1nc(C(C)(C)c2ccc(CCC3(C4CCCC4)CC(=O)CC(=O)O3)cc2)no1 (stereo not shown) [A(56), 6-Cyclopentyl-6-(2-{4-[1-methyl-1-(5-methyl-[1,2,4]oxadiazol-3-yl)-ethyl]-phenyl}-ethyl)-dihydro-pyran-2,4-dione] | 39 µM | –
O=C1CC(=O)OC(CCCCC2CCCCC2)(C2CCCC2)C1 (stereo not shown) [A(57), 6-(4-Cyclohexyl-butyl)-6-cyclopentyl-dihydro-pyran-2,4-dione] | 6.3 µM | –
O=C1CC(=O)OC(CCc2ccc(OC(F)F)cc2)(C2CCCC2)C1 (stereo not shown) [A(58), 6-Cyclopentyl-6-[2-(4-difluoromethoxy-phenyl)-ethyl]-dihydro-pyran-2,4-dione] | 6.5 µM | –
O=C1CC(=O)OC(CCc2ccc3c(c2)OC(F)(F)C(F)(F)O3)(C2CCCC2)C1 (stereo not shown) [A(59), 6-Cyclopentyl-6-[2-(2,2,3,3-tetrafluoro-2,3-dihydro-benzo[1,4]dioxin-6-yl)-ethyl]-dihydro-pyran-2,4-dione] | 3.2 µM | –
